Measured values: patent publication US12427210B2, “Compounds comprising a fibroblast activation protein ligand and use thereof” (priority 2019, dated 2025)

What was measured:
[1] = target: T1, Matrix metalloprotease 9 (mutant Q279R) (Homo sapiens, UniProt P14780, Q279R); conditions: 100 nM
T1 sequence (P14780 94-707 Q279R): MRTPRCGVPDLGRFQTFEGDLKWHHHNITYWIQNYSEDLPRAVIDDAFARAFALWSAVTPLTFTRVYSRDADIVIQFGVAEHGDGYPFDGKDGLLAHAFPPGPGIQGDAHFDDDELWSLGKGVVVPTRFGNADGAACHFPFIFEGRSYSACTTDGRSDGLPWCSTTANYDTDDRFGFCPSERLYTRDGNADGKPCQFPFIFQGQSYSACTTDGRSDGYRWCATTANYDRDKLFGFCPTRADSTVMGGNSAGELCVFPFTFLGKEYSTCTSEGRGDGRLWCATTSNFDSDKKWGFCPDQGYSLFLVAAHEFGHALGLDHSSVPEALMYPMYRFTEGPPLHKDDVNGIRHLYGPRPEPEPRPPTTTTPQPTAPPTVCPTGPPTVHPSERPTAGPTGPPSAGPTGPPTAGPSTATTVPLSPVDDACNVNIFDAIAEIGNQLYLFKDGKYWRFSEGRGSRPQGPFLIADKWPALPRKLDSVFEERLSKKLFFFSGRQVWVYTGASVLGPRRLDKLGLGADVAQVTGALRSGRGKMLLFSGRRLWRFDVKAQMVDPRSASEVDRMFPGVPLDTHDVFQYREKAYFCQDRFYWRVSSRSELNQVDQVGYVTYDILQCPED

Matrix metalloprotease 2 = target: T2, Matrix metalloprotease 2 (Homo sapiens, UniProt P08253); conditions: 100 nM
T2 sequence (P08253 110-660): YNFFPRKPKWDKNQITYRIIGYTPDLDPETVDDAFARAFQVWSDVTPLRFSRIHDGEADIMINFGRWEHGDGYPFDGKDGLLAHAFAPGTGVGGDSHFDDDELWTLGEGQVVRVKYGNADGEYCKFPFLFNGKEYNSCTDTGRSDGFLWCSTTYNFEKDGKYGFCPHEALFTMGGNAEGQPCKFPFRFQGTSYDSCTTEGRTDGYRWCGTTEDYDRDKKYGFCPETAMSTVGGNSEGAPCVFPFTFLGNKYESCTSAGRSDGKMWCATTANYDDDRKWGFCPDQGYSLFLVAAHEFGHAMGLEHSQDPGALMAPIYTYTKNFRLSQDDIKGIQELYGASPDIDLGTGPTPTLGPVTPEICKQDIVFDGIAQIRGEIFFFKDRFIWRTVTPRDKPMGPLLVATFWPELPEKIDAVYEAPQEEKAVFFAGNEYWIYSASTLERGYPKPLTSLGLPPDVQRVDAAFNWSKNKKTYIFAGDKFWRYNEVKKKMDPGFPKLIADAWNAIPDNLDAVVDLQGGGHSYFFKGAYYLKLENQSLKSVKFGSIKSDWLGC

Matrix metalloprotease1 = target: T3, Matrix metalloprotease1 (Homo sapiens, UniProt P03956); conditions: 1 μM
T3 sequence (P03956 100-469): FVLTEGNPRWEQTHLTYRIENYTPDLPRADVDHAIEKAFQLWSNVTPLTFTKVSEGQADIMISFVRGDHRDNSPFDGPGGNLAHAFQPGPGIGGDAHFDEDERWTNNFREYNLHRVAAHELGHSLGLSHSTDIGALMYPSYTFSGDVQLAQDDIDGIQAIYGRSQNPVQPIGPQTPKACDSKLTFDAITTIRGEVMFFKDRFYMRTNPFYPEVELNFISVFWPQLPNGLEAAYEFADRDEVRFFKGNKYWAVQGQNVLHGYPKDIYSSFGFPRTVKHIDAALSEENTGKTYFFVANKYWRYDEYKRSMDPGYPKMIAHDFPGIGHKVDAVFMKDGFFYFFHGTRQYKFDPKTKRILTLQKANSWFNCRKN

## COc1ccc(S(=O)(=O)N(CC(=O)NO)CC(C)C)cc1 [NNGH]
[1]
  Percentage inhibition (%), Reference: 92%
Matrix metalloprotease 2
  Percentage inhibition (%), Reference: 95%
Matrix metalloprotease1
  Percentage inhibition (%), Reference: 87%
